Measured values published in patent US20100291181A1, “THERAPEUTIC DEVICES FOR PATTERNED CELL GROWTH” (RUTGERS, THE STATE UNIVERSITY OF NEW JERSEY, priority 2002, published 2010).

Assays:
[1] = test system: dorsal root ganglia or dissociated neurons; assay: Dorsal root ganglia or dissociated neurons plated on laminin pattern; assay type: cell-based, chick; conditions: pattern of lines, PMMA substrate
Excerpt: Biologically active molecules were stably adsorbed onto a polymeric substrate without chemical modification of the substrate and without the use of linkers. A nondegradable polymer, poly(methyl methylacrylate) (PMMA, […] thickness, Goodfellows) and a degradable polymer, such as poly(hydroxybutyrate (PHB), polycaprolactone or polycaprolactam), were used as polymeric substrates for application of a micropattern of laminin. See FIG. 2 for the general procedure. For these experiments, the polymers were compressed into thin films of 200 μm and cut to the size of coverslips. After activation, polymeric substrates were evaluated via x-ray photoelectron spectroscopy, and/or scanning electron microscopy. […] After laminin absorption, its deposition was determined by incubating the prepared slips with rabbit anti-laminin affinity isolated antibody and FITC-conjugated goat anti-rabbit IgG (see FIG. 3).
Dorsal root ganglia dissected from seven-day old chick embryos were either directly plated onto the patterned substrate or dissociated into individual neurons and plated. […]
The laminin stamped PMMA squares were rinsed with Hank's balanced saline solution and plated with dorsal root ganglia or dissociated neurons in minimal, serum-free media. The samples were incubated at 37° C. for 24 to 48 hours, imaged with a Zeiss laser scanning confocal microscope, and the images analyzed for pattern adherence. […]

[2] = test system: primary rat Schwann cells; assay: Schwann cells plated on pattern of laminin lines, orientation analysis; assay type: cell-based
Description: Purified primary rat Schwann cells were obtained from Prof. M. B. Bunge, University of Miami, the Miami Project to Cure Paralysis, and maintained in tissue culture flasks with a growth media consisting of Dulbecco's Modified Eagle's Medium (DMEM, Sigma), 10% v/v fetal bovine serum (Gibco), L-glutamine (2 mM, BioWhittaker), penicillin/streptomycin (P/S, 50 U/mL/50 μg/mL, BioWhittaker), 10 μg/mL bovine pituitary extract (Collaborative), and 10 μM forskolin (Sigma).
Schwann cells were rinsed with phosphate buffered saline (PBS, BioWhittaker) and incubated with trypsin ([…], Sigma) for 3 min. An equal amount of serum containing media was added to deactivate the trypsin and the cells were concentrated by centrifugation. […]
The samples were imaged on a Zeiss LSM 410 confocal laser-scanning microscope (CLSM) with a computer controlled laser scanning assembly attached to the microscope using a 20× phase contrast objective in fluorescence mode. An Omnichrome 3 line Argon/Krypton laser (488, 568, 647 nm) was used as the excitation source for double fluorescence measurements, with excitation at 488 nm and 568 nm and emission at 512 nm and 605 nm. […]
Multiple images were taken randomly per sample and analyzed by Image Pro Plus image analysis software (Media Cybernetics). […] Major and minor axes were calculated as well as the angle created by the major axis and the direction of patterning (FIG. 7). […]

## laminin
[1]
  neuronal process outgrowth along the pattern: most neuronal processes adhere to and grow along the lines of the laminin pattern
[2]; monolayer, ellipse fitting, FIG. 7
  orientation of Schwann cells relative to direction of laminin patterning (0°): majority of the cells are oriented at 0°
[2]; pattern of lines, FIG. 5
  process outgrowth along the pattern, Schwann cells: most neuronal processes adhere to and grow along the lines of the laminin pattern
